Literature values in patent US20150024025A1, “ALIGNED N[…] AXONAL RE[…] SPINAL CORD INJURY OR SURGERY” (THE UAB RESEARCH FOUNDATION, priority 2012, published 2015).

System: spinal cord injury

chondroitinase ABC
axonal repair and regeneration in vivo after spinal cord injury: promotes axonal repair and regeneration
